Test results published in publication PMC9555560, “Fast relaxing red and near-IR switchable azobenzenes with chalcogen and halogen substituents: periodic trends, tuneable thermal half-lives and chalcogen bonding” (Chemical Science, 2022).

Columns and labels:
[1] = E → Z photo-isomerisation with LEDs / photo-stationary state (PSS) determination; type: physicochemical; conditions: under irradiation
Method: The E → Z photo-isomerisation and half-life for the Z → E thermal isomerisation was evaluated for all derivatives (Fig. 7 and Table 1, see ESI ^† for original data). To our surprise, the half-lives for (Z)-X2,m-Y2 derivatives were in the order of hours to days for X = F and Cl: the effect of the meta group was not as drastic as anticipated. We typically observed a ∼4 fold decrease in half-life by substituting H with OMe, and a further 3-fold drop from OMe to NMe2 for X = F, Cl and SEt. The nature of the ortho-substituent appeared to be the main influence on τ1/2 (F > Cl ≫ SEt). However, these predictable trends observed for the meta-substitution allow for precise tuning of thermal half-lives. The photo-stationary states (PSSs) of these derivatives ranged from 48–77% Z isomer (Table 1).
Remarkably, it was possible to photo-switch the tetra-iodo derivative I4-ester using near-IR light (730 nm) (Fig. 8C). […] Photo-isomerisation was not detected for the ortho-telluro derivatives. This is consistent with findings by Haberhauer and co-workers, who propose that the strong chalcogen bonds in the E isomer of a PhTe-substituted azobenzene lead to dramatic energy differences between the E and Z isomers, which suppresses photoswitching.[43] The photo-stationary states of the halogen X4 derivatives range from 50–84% (Table 1) and could also be determined for the slower relaxing chalcogen derivatives (PSS 46–95%, see Fig. S308–S323 ^† for original data).
All UV-vis spectra were determined in DMSO solution. Extinction coefficients were determined by recording a UV-vis spectra for the E isomer at 10, 20, 30, 40 µM in DMSO respectively. The absorbance at the maximum of the π - π* transition of the E‐isomers was plotted against concentration (Beer-Lambert plot) to determine the molar extinction coefficient ε. For each slow relaxing compound, the E isomer sample at 40 µM was irradiated with the appropriate wavelength of light to generate the photo-stationary state, and another spectrum was run. This spectrum was normalised to units of ε and overlaid with the dark (100% E isomer) spectrum. […]

[2] = UV-vis spectra of the E isomers (n → π* absorption maximum); type: physicochemical; conditions: E isomer, DMSO
From the text: The UV-vis spectra of the (E)-X4 derivatives and (E)-X2,m-Y2 are shown in Fig. 3 (analogous spectra for the Z isomers, and deconvoluted spectra are available in the ESI ^†). […] The n → π* transition maximum, λmax, typically followed the order meta-H > –NMe2 > –OMe and ortho-S > Cl > F. It is clear from these experiments that the four ortho X substituents in the X4 derivatives are essential for achieving the deeply red-shifted tails which allows for red/near-IR triggered photo-isomerisation.
All UV-vis spectra were determined in DMSO solution. Extinction coefficients were determined by recording a UV-vis spectra for the E isomer at 10, 20, 30, 40 µM in DMSO respectively. The absorbance at the maximum of the π - π* transition of the E‐isomers was plotted against concentration (Beer-Lambert plot) to determine the molar extinction coefficient ε. For each slow relaxing compound, the E isomer sample at 40 µM was irradiated with the appropriate wavelength of light to generate the photo-stationary state, and another spectrum was run. This spectrum was normalised to units of ε and overlaid with the dark (100% E isomer) spectrum.

Stability to light [1] | λ max of n → π* transition [2] [nm] | Structure (SMILES)
unstable to light | 512.9 | CCSc1cc(CNC(=O)OC(C)(C)C)c(OC)c(SCC)c1/N=N/c1c(SCC)cc(CNC(=O)OC(C)(C)C)c(OC)c1SCC [(SEt)4,m-OMe2-NHBoc]
unstable to light | 426.6 | COc1cc(/N=N/c2cc(OC)c(CNC(=O)OC(C)(C)C)cc2OC)c(OC)cc1CNC(=O)OC(C)(C)C [OMe2,m-OMe2]
